Where “and” joins values, the source holds several entries; their conditions need not be identical. Equal values may be shown once.
Key:
[1] = molecular target: T1, recombinant human mGluR4a receptors (Homo sapiens, UniProt Q14833); experiment: mGluR4 assay on HEK-expressing human mGluR4: fluorescent cell based Ca2+ mobilization assay (FLIPR, Fluo-4); conditions: enhancement of EC25 glutamate response in HEK-293 cells expressing hmGluR4; mean of at least three independent experiments performed in duplicate; read-out: Ca^2+ Flux (mean EC50)
T1 construct: expressed in transfected cells
Text: mGluR4 Assay on HEK-Expressing Human mGluR4 The compounds of the present invention are positive allosteric modulators of mGluR4 receptor. Their activity was examined on recombinant human mGluR4a receptors by detecting changes in intracellular Ca^2+ concentration, using the fluorescent Ca^2+-sensitive dye Fluo-4-(AM) and a Fluorometric Imaging Plate Reader (FLIPR, Molecular Devices, Sunnyvale, Calif.). The cDNA encoding the human metabotropic glutamate receptor (hmGluR4), (accession number NM_000841.1, NCBI Nucleotide database browser), was subcloned into an expression vector containing also the hygromycin resistance gene. In parallel, the cDNA encoding a G protein allowing redirection of the activation signal to intracellular calcium flux was subcloned into a different expression vector containing also the puromycin resistance gene. Transfection of both these vectors into HEK293 cells with PolyFect reagent (Qiagen) according to supplier's protocol, and hygromycin and puromycin treatment allowed selection of antibiotic resistant cells which had integrated stably one or more copies of the plasmids. Positive cellular clones expressing hmGluR4 were identified in a functional assay measuring changes in calcium fluxes in response to glutamate or selective known mGluR4 orthosteric agonists and antagonists. HEK-293 cells expressing hmGluR4 were maintained in media containing DMEM, dialyzed Fetal Calf Serum (10%), Glutamax™ (2 mM), Penicillin (100 units/mL), Streptomycin (100 μg/mL), Geneticin (100 μg/mL) and Hygromycin-B (40 μg/mL) and puromycin (1 μg/mL) at 37° C./5% CO2. Human mGluR4 HEK-293 cells were plated out 24 hours prior to FLIPR^384 assay in black-walled, clear-bottomed, poly-L-ornithine-coated 384-well plates at a density of 25,000 cells/well in a glutamine/glutamate free DMEM medium containing foetal bovine serum (10%), penicillin (100 units/mL) and streptomycin (100 μg/mL) at 37° C./5% CO2. On the day of the assay, the medium was aspirated and the cells were loaded with a 3 μM solution of Fluo4-AM (LuBioScience, Lucerne, Switzerland) in 0.03% pluronic acid. After 1 hour at 37° C./5% CO2, the non incorporated dye was removed by washing cell plate with the assay buffer and the cells were left in the dark at room temperature for […] before testing. All assays were performed in a pH 7.4 buffered-solution containing 20 mM HEPES, 143 mM NaCl, 6 mM KCl, 1 mM MgSO4, 1 mM CaCl2, 0.125 mM sulfapyrazone and 0.1% glucose. After 10 s of basal fluorescence recording, various concentrations of the compounds of the invention were added to the cells. Changes in fluorescence levels were first monitored for 180 s in order to detect any agonist activity of the compounds. Then the cells were stimulated by an EC25 glutamate concentration for an additional 110 s in order to measure enhancing activities of the compounds of the invention. EC25 glutamate concentration is the concentration giving 25% of the maximal glutamate response. The concentration-response curves of representative compounds of the present invention were generated using the Prism GraphPad software (Graph Pad Inc, San Diego, USA). The curves were fitted to a four-parameter logistic equation: (Y=Bottom+(Top−Bottom)/(1+10^((Log EC50−X)*Hill Slope) allowing the determination of EC50 values. The Table 3 below represents the mean EC50 obtained from at least three independent experiments of selected molecules performed in duplicate.

T1 sequence (Q14833 33-912): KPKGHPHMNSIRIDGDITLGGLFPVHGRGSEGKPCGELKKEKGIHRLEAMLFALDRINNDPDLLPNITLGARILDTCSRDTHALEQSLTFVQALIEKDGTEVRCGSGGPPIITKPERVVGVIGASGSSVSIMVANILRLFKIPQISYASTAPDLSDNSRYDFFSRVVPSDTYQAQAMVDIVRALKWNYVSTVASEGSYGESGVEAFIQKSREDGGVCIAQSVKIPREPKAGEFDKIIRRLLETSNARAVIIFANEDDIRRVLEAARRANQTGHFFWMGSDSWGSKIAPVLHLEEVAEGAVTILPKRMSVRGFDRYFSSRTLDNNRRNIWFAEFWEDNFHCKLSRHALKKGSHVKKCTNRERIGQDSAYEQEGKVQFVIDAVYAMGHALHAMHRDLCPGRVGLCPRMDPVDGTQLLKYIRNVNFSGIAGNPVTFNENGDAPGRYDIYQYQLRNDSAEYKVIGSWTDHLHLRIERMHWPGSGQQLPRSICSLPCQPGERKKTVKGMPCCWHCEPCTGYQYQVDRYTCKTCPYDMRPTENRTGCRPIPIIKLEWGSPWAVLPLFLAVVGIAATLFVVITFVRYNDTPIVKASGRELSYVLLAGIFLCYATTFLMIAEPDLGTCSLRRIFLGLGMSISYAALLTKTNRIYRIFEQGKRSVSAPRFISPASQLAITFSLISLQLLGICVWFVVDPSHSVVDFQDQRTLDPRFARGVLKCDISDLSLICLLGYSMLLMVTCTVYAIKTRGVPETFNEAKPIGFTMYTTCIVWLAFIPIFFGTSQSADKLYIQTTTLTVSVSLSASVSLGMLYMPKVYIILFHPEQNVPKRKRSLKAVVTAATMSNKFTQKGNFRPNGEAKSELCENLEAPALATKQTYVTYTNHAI

Row | Structure (SMILES) | EC50 [1] [nM] | melting point
1 | c1ccc(Nc2nc(-c3c[nH]nc3CC3CC3)cs2)nc1 [Compound 1-6, 4-(3-(Cyclopropylmethyl)-1H-pyrazol-4-yl)-N-(pyridin-2-yl)thiazol-2-amine] | 100 to 1000 | 
2 | c1ccc(Nc2nc(-c3cn[nH]c3)c(N3CCCC3)s2)nc1 [Compound 1-8, 4-(1H-Pyrazol-4-yl)-N-(pyridin-2-yl)-5-(pyrrolidin-1-yl)thiazol-2-amine] | 1000 to 10000 | 209 °C
3 | Cn1ccc(Nc2nc(-c3cn[nH]c3)cs2)n1 [Compound 1-27, N-(1-Methyl-1H-pyrazol-3-yl)-4-(1H-pyrazol-4-yl)thiazol-2-amine] | 1000 to 10000 | 209 to 211 °C
4 | COCc1sc(Nc2ccccn2)nc1-c1cn[nH]c1 [Compound 1-18, 5-(Methoxymethyl)-4-(1H-pyrazol-4-yl)-N-(pyridin-2-yl)thiazol-2-amine] | 100 to 1000 | 
5 | Fc1cccc(Nc2nc(-c3cn[nH]c3)c(F)s2)n1 [Compound 1-10, 5-Fluoro-N-(6-fluoropyridin-2-yl)-4-(1H-pyrazol-4-yl)thiazol-2-amine] | < 100 | 237 °C
6 | Cc1sc(Nc2ncccn2)nc1-c1cn[nH]c1 [Compound 1-16, 5-Methyl-4-(1H-pyrazol-4-yl)-N-(pyrimidin-2-yl)thiazol-2-amine] | < 100 | 298 to 300 °C
7 | c1ccc(Nc2nc(-c3cn[nH]c3)c(CN3CCOCC3)s2)nc1 [Compound 1-21, 5-(Morpholinomethyl)-4-(1H-pyrazol-4-yl)-N-(pyridin-2-yl)thiazol-2-amine] | 1000 to 10000 | 
8 | Cc1sc(Nc2cccc(C#N)n2)nc1-c1cn[nH]c1 [Compound 1-1, 6-(5-Methyl-4-(1H-pyrazol-4-yl)thiazol-2-ylamino)picolinonitrile] | 100 to 1000 | 331 °C
9 | CC(=O)NCn1cc(-c2nc(Nc3ccccn3)sc2C)cn1 [Compound 1-61, N-((4-(5-Methyl-2-(pyridin-2-ylamino)thiazol-4-yl)-1H-pyrazol-1-yl)methyl)acetamide] | 1000 to 10000 | 175 °C and 180 °C
10 | CN(C)c1[nH]ncc1-c1csc(Nc2ncccn2)n1 [Compound 1-65, 4-(5-(Dimethylamino)-1H-pyrazol-4-yl)-N-(pyrimidin-2-yl)thiazol-2-amine] | 1000 to 10000 | 
11 | N#Cc1[nH]ncc1-c1csc(Nc2ccccn2)n1 [Compound 1-26, 4-(2-(Pyridin-2-ylamino)thiazol-4-yl)-1H-pyrazole-5-carbonitrile] | 100 to 1000 | 
12 | Clc1[nH]ncc1-c1csc(Nc2ccccn2)n1 [Compound 1-17, 4-(5-Chloro-1H-pyrazol-4-yl)-N-(pyridin-2-yl)thiazol-2-amine] | < 100 | 299 to 304 °C

Source: patent US9073907B2, “Thiazoles derivatives and their use as positive allosteric modulators of metabotropic glutamate receptors” (Addex Pharma S.A., priority 2009, dated 2015)
